In ChEMBL document CHEMBL1133171, “Selective plasma hydrolysis of glucocorticoid gamma-lactones and cyclic carbonates by the enzyme paraoxonase: an ideal plasma inactivation mechanism” (J Med Chem, 2000):
pIC50: −log10 of the molar value.

Key:
Glucocorticoid receptor [1] = molecular target: T1, Glucocorticoid receptor (Homo sapiens, UniProt P04150); experiment: (§1) Inhibition of [3H]dexamethasone binding to human Glucocorticoid Receptor
T1 sequence (P04150 whole entry): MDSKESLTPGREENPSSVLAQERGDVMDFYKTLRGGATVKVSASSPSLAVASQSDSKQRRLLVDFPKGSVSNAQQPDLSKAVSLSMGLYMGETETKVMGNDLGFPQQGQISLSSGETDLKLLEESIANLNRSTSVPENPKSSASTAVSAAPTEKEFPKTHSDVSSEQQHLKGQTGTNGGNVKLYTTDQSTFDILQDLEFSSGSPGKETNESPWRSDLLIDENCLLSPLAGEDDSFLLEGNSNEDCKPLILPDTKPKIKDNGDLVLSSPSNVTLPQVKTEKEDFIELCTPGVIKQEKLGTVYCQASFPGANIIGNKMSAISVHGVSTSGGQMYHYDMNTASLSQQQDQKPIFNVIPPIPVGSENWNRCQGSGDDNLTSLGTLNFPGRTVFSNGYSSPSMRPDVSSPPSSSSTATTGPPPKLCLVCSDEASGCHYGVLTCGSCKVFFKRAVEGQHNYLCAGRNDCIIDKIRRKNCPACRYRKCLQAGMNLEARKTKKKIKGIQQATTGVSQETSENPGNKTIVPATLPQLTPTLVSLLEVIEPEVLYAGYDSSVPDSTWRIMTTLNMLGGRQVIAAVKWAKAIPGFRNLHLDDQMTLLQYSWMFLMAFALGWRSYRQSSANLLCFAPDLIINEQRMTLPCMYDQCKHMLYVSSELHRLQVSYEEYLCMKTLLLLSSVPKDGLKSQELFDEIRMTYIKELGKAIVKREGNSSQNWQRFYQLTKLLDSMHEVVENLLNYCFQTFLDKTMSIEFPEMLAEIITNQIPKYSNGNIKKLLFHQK

Glucocorticoid receptor [2] = molecular target: T1, Glucocorticoid receptor; experiment: as §1; remark: listed apart in the source

Question: With CC1(C)O[C@@H]2CC3C4C[C@H](F)C5=CC(=O)C=C[C@]5(C)[C@@]4(F)[C@@H](O)C[C@]3(C)[C@]2(C(=O)CSC(CCO)C(=O)O)O1 (some centres not stated) as the compound, how does the pIC50 (Glucocorticoid receptor [1]) read?
Answer: 6.71

Question: What about the pIC50 (Glucocorticoid receptor [2]) of the same compound?
Answer: 6.08
